Test results reported in patent publication US20060008378A1, “Sterilization method” (priority 2004, published 2006).

Test system: bacillus used as an index (biological-indicator)
Settings: 15 g of 35% hydrogen peroxide solution vaporized in 3 minutes, about 0.8 m^3 isolator, peak about 1300 ppm, closed state until 1200 seconds
Procedure: In this Example, the above-mentioned injector 14 is controlled so that hydrogen peroxide solution is continuously dropped for 3 minutes at a flow rate of 5 g/min, and the dropped hydrogen peroxide solution changes to hydrogen peroxide vapor by flash evaporation in an evaporator 12 in an instant.

Compound: OO [hydrogen peroxide vapor, hydrogen peroxide]
- effect of sterilization (culturing the biological-indicator after sterilization): multiplication of the bacillus used as an index is not recognized
